Source: the NIST ThermoML archive (doi:10.1016/j.jct.2009.04.006)
Numbers after ± are expanded uncertainties.

Legend:
[1] = refractive index (Na D-line) (dimensionless); conditions: 298.15 K; 101.33 kPa; Liquid; Standard Abbe refractometry
[2] = Liquid; for mass density: 101.33 kPa, Pycnometric method; for vapor or sublimation pressure: Isoteniscope

| Compound | refractive index [1] | mass density ([2]; 298.15 K) [kg/m3] | vapor or sublimation pressure ([2]; 298.15 K) [kPa] | vapor or sublimation pressure ([2]; 308.15 K) [kPa] | vapor or sublimation pressure ([2]; 318.15 K) [kPa] |
| --- | --- | --- | --- | --- | --- |
| CC(Cl)(Cl)Cl [1,1,1-trichloroethane] | 1.4354 ± 0.0004 | 1328.7 ± 0.6 | 16.64 ± 0.19 | 25.85 ± 0.22 | 37.61 ± 0.25 |
| O=C1CCCCC1 [cyclohexanone] | 1.4482 ± 0.0004 | 943 ± 0.4 | 0.64 ± 0.05 | 1.16 ± 0.06 | 1.92 ± 0.06 |
| CCCCCl [1-chlorobutane] | 1.3991 ± 0.0004 | 880.9 ± 0.4 | 13.72 ± 0.15 | 20.66 ± 0.19 | 31.46 ± 0.23 |
